The structures appear in SMILES notation.

These results are taken from US7148232B2, “Oxazolo, thiazolo and selenazolo [4,5-c]-quinolin-4-amines and analogs thereof” (3M Innovative Properties Company, priority 1998, dated 2006).

The test system of series [1] is interferon (α). The series is described as follows: Interferon (α) induction in human cells (in vitro human blood cell system, interferon by bioassay). Type of series: cell-based. The conditions noted are these: human PBM's, 48 hours.
Series [2] has as its system tumor necrosis factor (α). Put plainly: Cytokine induction in human cells: tumor necrosis factor (α) secreted by PBMCs (ELISA). It counts as cell-based. The following applies: 18 to 24 hours. The method, then: (§1) An in vitro human blood cell system was used to assess cytokine induction by compounds of the invention.
(§2) Whole blood is collected by venipuncture into EDTA vacutainer tubes from healthy human donors. […] The PBMC suspension is added to 48 well flat bottom sterile tissue culture plates (Costar, Cambridge, Mass. or Becton Dickinson Labware, Lincoln Park, N.J.) containing an equal volume of RPMI complete media containing test compound.
(§3) The compounds are solubilized in dimethyl sulfoxide (DMSO). The DMSO concentration should not exceed a final concentration of 1% for addition to the culture wells.
(§4) The solution of test compound is added at 60 μM to the first well containing RPMI complete and serial 3 fold dilutions are made. The PBMC suspension is then added to the wells in an equal volume, bringing the test compound concentrations to the desired range (0.12 to 30 μM). The final concentration of PBMC suspension is 1.5–2×10^6 cells/mL. The plates are covered with sterile plastic lids, mixed gently and then incubated for 18 to 24 hours at 37° C. in a 5% carbon dioxide atmosphere.
(§5) Following incubation the plates are centrifuged for 5–10 minutes at 1000 rpm (˜200×g) at 4° C. The cell culture supernatant is removed with a sterile polypropylene pipet and transferred to sterile polypropylene tubes. Samples are maintained at −30 to −70° C. until analysis. The samples are analyzed for interferon (α) by either ELISA or bioassay and for tumor necrosis factor (α) by ELISA
Tumor necrosis factor (α) (TNF) concentration is determined using ELISA kits available from Genzyme, Cambridge, Mass.; R&D Systems, Minneapolis, Minn.; or Pharmingen, San Diego, Calif. according to the manufacturer's instructions.
In general terms: An ELISA detects its analyte on a solid surface through an enzyme-linked reagent.

For series [3], the system named is interferon (α). Put plainly: Cytokine induction in human cells: interferon (α) secreted by PBMCs (ELISA or bioassay). It counts as cell-based. The conditions noted are these: 18 to 24 hours. The procedure:
as §1, §2, §3, §4, §5
Interferon is determined by bioassay using A549 human lung carcinoma cells challenged with encephalomyocarditis. […] Briefly stated the method is as follows: A549 cells are incubated with dilutions of samples or a standard interferon at 37° C. for 24 hours. The incubated cells are then infected with an inoculum of encephalomyocarditis virus. The infected cells are incubated for an additional 24 hours at 37° C. before evaluating for viral cytopathic effect. The viral cytopathic effect is quantified by staining with crystal violet followed by visual scoring of the plates. Results are expressed as alpha reference units/mL based on the value obtained for NIH Human Leukocyte IFN standard.
Interferon (α) concentration is determined by ELISA using a Human Multi-Species kit from PBL Biomedical Laboratories, New Brunswick, N.J. according to the manufacturer's instructions.

Regarding `Nc1nc2ccccc2c2sc(N3CCOCC3)nc12` [Example 53, 2-(4-Morpholino)thiazolo[4,5-c]quinolin-4-amine], the melting point fell in the range of 225 to 227 °C. Moreover, the “Interferon (α) Induction in Human Cells” value in series [1] (Dose Concentration 0.01 μg/mL) is listed as “−”. Moreover, the “Interferon (α) Induction in Human Cells” value in series [1] (Dose Concentration 0.05 μg/mL) is given as “−”. In addition, in series [1] (Dose Concentration 0.10 μg/mL), the “Interferon (α) Induction in Human Cells” value was “−”. Also, in series [1] (Dose Concentration 0.50 μg/mL), the “Interferon (α) Induction in Human Cells” value is “−”. Besides, the “Interferon (α) Induction in Human Cells” value in series [1] (Dose Concentration 1.0 μg/mL) is given as “−”. In addition, the “Interferon (α) Induction in Human Cells” value in series [1] (Dose Concentration 5.0 μg/mL) is “−”. Besides, the “Interferon (α) Induction in Human Cells” value in series [1] (Dose Concentration 10.0 μg/mL) is reported as “−”. For the same compound, the “Interferon (α) Induction in Human Cells” value in series [1] (Dose Concentration 25.0 μg/mL) was “+”. For the same compound, the “Interferon (α) Induction in Human Cells” value in series [1] (Dose Concentration 50.0 μg/mL) is “+”. Further, the “Tumor Necrosis Factor Induction” value in series [2] (Dose Concentration 0.12 μM) was “−”. Besides, in series [2] (Dose Concentration 0.37 μM), the “Tumor Necrosis Factor Induction” value is “−”. Besides, the “Tumor Necrosis Factor Induction” value in series [2] (Dose Concentration 1.11 μM) is listed as “−”. The “Tumor Necrosis Factor Induction” value in series [2] (Dose Concentration 3.33 μM) was “−”. Further, the “Tumor Necrosis Factor Induction” value in series [2] (Dose Concentration 10 μM) was “−”. In addition, the “Tumor Necrosis Factor Induction” value in series [2] (Dose Concentration 30 μM) is reported as “−”. For the same compound, in series [3] (Dose Concentration 0.12 μM), the “Interferon (α) Induction” value is “−”. In addition, the “Interferon (α) Induction” value in series [3] (Dose Concentration 0.37 μM) is “−”. For the same compound, in series [3] (Dose Concentration 1.11 μM), the “Interferon (α) Induction” value was “−”. In series [3] (Dose Concentration 3.33 μM), the “Interferon (α) Induction” value was “−”. Besides, the “Interferon (α) Induction” value in series [3] (Dose Concentration 10 μM) is recorded as “−”. Further, the “Interferon (α) Induction” value in series [3] (Dose Concentration 30 μM) is on record as “−”.

What is called melting point is the temperature of the solid-liquid transition.
